In article PMC6385020 (Molecules, 2019):

Legend:
[1] = test system: 21CTA human telomeric sequence variant G4; type: binding; conditions: K+100 buffer; for % of TO displacement at 1 µM of ligand: TO 2 eq; for % of TOPRO3 displacement at 1 µM of ligand: TO-PRO-3 2 eq
Description: (§1) For the G4-FID assay, the oligonucleotides were dissolved in K^+100 buffer (10 mM lithium cacodylate buffer pH 7.3, 100 mM KCl, 1% DMSO). Oligonucleotide concentrations were determined on the basis of their absorbance at 260 nm. For the fluorimetric titration, the oligonucleotides were dissolved in K^+100 buffer without DMSO. For the FRET-melting assay, the oligonucleotides were dissolved in K^+1 buffer (10 mM lithium cacodylate buffer pH 7.3, 1 mM KCl, 99 mM LiCl) except for F-21-T. F-21-T was dissolved in K^+10 buffer (10 mM lithium cacodylate buffer pH 7.3, 10 mM KCl, 90 mM LiCl).
(§2) Prior to use, all oligonucleotides were pretreated by heating at 95 °C for 5 min, then rapidly cooled to 4 °C to favor the intramolecular folding by kinetic trapping. Duplex-DNA ds26 was prepared by heating the self-complementary strand at 90 °C for 5 min in K^+1 buffer followed by a slow cooling over 6 h.
(§3) Each G4-FID assay was performed in a 96-well Non-Binding Surface black with black bottom polystyrene microplates (Corning). Every ligand was tested on a line of the microplate, in duplicate. The microplate was filled with (a) K^+100 solution (qs for 200 μL), (b) 10 μL of a solution of pre-folded oligonucleotides (5 μM) and fluorescent probe (TO/TO-PRO-3 (10 μM—2 eq) or PhenDV (7,5 µM—1.5 eq)), and (c) an extemporaneously prepared 5 μM ligand solution in K^+100 buffer (0 to 100 μL) along the line of the microplate, i.e., from column A to column H: 0, 0.125, 0.25, 0.375, 0.5, 0.625, 0.75, 1.0, 1.25, 1.5, 2.0, and 2.5 μM. After 5 min of orbital shaking at 500 rpm, fluorescence is measured using the following experimental parameters: positioning delay of 0.5 s, 20 flashes per well, emission/excitation filters for TO at 485/520, TO-PRO-3 at 620/670, and PhenDV at 355/520 gain adjusted at 80% of the fluorescence from the most fluorescent well (i.e., a well from column A for TO and a well from column H).
(§4) The percentage of TO displacement is calculated from the fluorescence intensity (F), using (1) % TO displacement=1−F/F0 where F0 is the fluorescence from the fluorescent probe bound to DNA without added ligand.
(§5) The PhenDV displacement is calculated from the fluorescence intensity F; F(ligand+probe), which refers to the fluorescence of the probe in presence of the ligand (without G4); and F0, which is the fluorescence without added ligand. The term F(ligand+probe) is necessary as the ligand can quench the fluorescence of the probe. The percentage of displacement is then plotted as a function of the concentration of the added ligand. The DNA affinity was evaluated by the concentration of ligand required to decrease the fluorescence of the probe by 50%, was noted DC50, and was determined after non-linear fitting of the displacement curve.

[2] = test system: 22AG human telomeric sequence G4; experiment: TO-PRO-3 G4-FID assay; type: binding; conditions: TO-PRO-3 2 eq, K+100 buffer
Description: as §1, §2, §3, §4, §5

[3] = test system: CEB25-WT minisatellite sequence G4; experiment: TO-PRO-3 G4-FID assay; type: binding; conditions: TO-PRO-3 2 eq, K+100 buffer
Description: as §1, §2, §3, §4, §5

c-myc G4 [4] = experiment: TO-PRO-3 G4-FID assay; type: binding; conditions: TO-PRO-3 2 eq, K+100 buffer
Description: as §1, §2, §3, §4, §5

[5] = test system: 22AG human telomeric sequence G4; experiment: PhenDV G4-FID assay; type: binding; conditions: PhenDV 1.5 eq, K+100 buffer
Description: as §1, §2, §3
(§6) In the case of PhenDV, the fluorescence of the unbound probe is not negligible. The percentage of displacement becomes (2) % PhenDV Displacement=F−F0/Fligand+probe−F0
as §5

[6] = test system: CEB25-WT minisatellite sequence G4; experiment: PhenDV G4-FID assay; type: binding; conditions: PhenDV 1.5 eq, K+100 buffer
Description: as §1, §2, §3, §6, §5

c-myc G4 [7] = experiment: PhenDV G4-FID assay; type: binding; conditions: PhenDV 1.5 eq, K+100 buffer
Description: as §1, §2, §3, §6, §5

[8] = test system: A2780 ovarian cancer cell line; experiment: Cell growth (proliferation), 96 h treatment; type: cell-based, human; conditions: A2780, 96 h treatment
Description: (§7) The ovarian carcinoma cell lines and human normal lung cells were purchased from ATCC and were grown in complete RPMI medium (ovarian) and DMEM (human lung cells) supplemented with 10% fetal calf serum, in the presence of penicillin, streptomycin. The resistance of A2780cis cells to cisplatin was maintained by monthly treatment with 1 µM cisplatin for 4 days. Concentrated stock solutions of complexes were conserved at −20 °C (DMSO/Water) and freshly diluted in water just before the experiments. Cells were treated with various concentrations of platinum complexes at 37 °C under humidity and 5% CO2 conditions for 96 h. Cellular growth was quantified using the particle counter MOXI (VWR).

[9] = test system: A2780cis cisplatin-resistant ovarian cancer cell line; experiment: Cell growth (proliferation), 96 h treatment; type: cell-based, human; conditions: 96 h treatment; for IC50: A2780cis
Description: as §7

[10] = test system: CCD19Lu normal lung cell line; experiment: Cell growth (proliferation), 96 h treatment; type: cell-based, human
Description: as §7

[11] = test system: 22AG (DNA, G4) AGGGTTAGGGTTAGGGTTAGGG; experiment: G4-FID, thiazole orange displacement; conditions: 100 mM KCl; 10 mM lithium cacodylate pH 7.3, 1% DMSO; thiazole orange displaced; 1 µM compound, 0.25 µM DNA
[12] = test system: CEB25-WT (DNA, G4) AAGGGTGGGTGTAAGTGTGGGTGGGT; experiment: G4-FID, thiazole orange displacement; conditions: 100 mM KCl; 10 mM lithium cacodylate pH 7.3, 1% DMSO; thiazole orange displaced; 1 µM compound, 0.25 µM DNA
[13] = test system: G4 structures (22AG, c-myc, 21CTA, CEB25-WT); experiment: TO-PRO-3-G4-FID assay, G4 structures; type: binding
Description: as §1, §2, §3, §4, §5

SMILES	% of TO displacement at 1 µM of ligand [1]	% of TOPRO3 displacement at 1 µM of ligand [1]	% of TOPRO3 displacement at 1 µM of ligand [2]	% of TOPRO3 displacement at 1 µM of ligand [3]	% of TOPRO3 displacement at 1 µM of ligand (c-myc G4 [4])	% of PhenDV displacement at 1 µM of ligand [5]	% of PhenDV displacement at 1 µM of ligand [6]	% of PhenDV displacement at 1 µM of ligand (c-myc G4 [7])	IC50 [8]	Resistance Factor (IC50ratio A2780cis/A2780) [9]	IC50 [9]	IC50 [10]	% TO displacement [11]	% TO displacement [12]	TO-PRO-3 displacement [13]
CN(C)CCCNCc1ccc(-c2cc(-c3ccccn3)nc(-c3ccccn3)c2)cc1.[Cl-].[Cl][Pt+] [Pt-ctpy]	93%	83%	78%	76%	58%	84%	72%	29%	4600 nM	1.1	5000 nM	5200 nM	> 80%	> 80%	
[Cl-].[Cl][Pt+].c1ccc(-c2cc(-c3ccc(OCCN4CCCC4)cc3)nc(-c3ccccn3)n2)nc1 [Pt-cpym, Chloro-(2,4-di(pyridin-2-yl)-6-(4-(2-(pyrrolidin-1-yl)ethoxy)phenyl)pyrimidine)-platinum(II) Chloride]	82%	25%	25%			43%	33%	3%	3800 nM	1.3	5000 nM	1800 nM	< 60%	< 60%	weak displacement
Cc1ccc(-c2cc(-c3ccccn3)nc(-c3ccccn3)c2)cc1.[Cl-].[Cl][Pt+] [Pt-ttpy]	87%	62%	65%	62%	76%	63%	45%	22%	2500 nM	1.0	2500 nM	1750 nM	> 80%	> 80%	
CN(C)c1ccc(/C=C/c2cc(-c3ccccn3)nc(-c3ccccn3)n2)cc1.[Cl-].[Cl][Pt+] [Pt-vpym, Chloro-(E)-4-(2-(2,6-di(pyridin-2-yl)pyrimidin-4-yl)vinyl)-N,N-dimethylaniline-platinum(II) Chloride]		32%	28%	23%	32%				700 nM	0.6	400 nM	700 nM			30%
[Cl-].[Cl][Pt+].c1ccc(-c2cccc(-c3ccccn3)n2)nc1 [Pt-tpy]	24%	23%	12%		32%	24%	13%	5%	3000 nM	1.6	5000 nM	3000 nM			weak displacement
